Measurements as given in patent publication US11266692B2, “Intracellular genomic transplant and methods of therapy” (Regents of the University of Minnesota, priority 2015, dated 2022).

These substances were tested on PD1 (assay: Validation of gRNAs: Cas9/gRNA plasmids in HEK293T, Surveyor digest, gel densitometry). Conditions: PD1 gene site, 3 days.
Assay type: cell-based, human
Method: (§1) HEK293T cells were plated out at a density of 1×10^5 cells per well in a 24 well plate. 150 uL of Opti-MEM medium was combined with 1.5 ug of gRNA plasmid, 1.5 ug of Cas9 plasmid. Another 150 uL of Opti-MEM medium was combined with 5 ul of Lipofectamine 2000 Transfection reagent (Invitrogen). The solutions were combined together and incubated for 15 minutes at room temperature. The DNA-lipid complex was added dropwise to wells of the 24 well plate. Cells were incubated for 3 days at 37° C. and genomic DNA was collected using the GeneJET Genomic DNA Purification Kit (Thermo Scientific). Activity of the gRNAs was quantified by a Surveyor Digest, gel electrophoresis, and densitometry (FIG. 60 and FIG. 61) (Guschin, D. Y., et al., “A Rapid and General Assay for Monitoring Endogenous Gene Modification,” Methods in Molecular Biology, 649: 247-256 (2010)).
(§2) The percentage numbers in Table 7 indicated the percent of gene modifications in the sample.

Point of comparison: “PD1 gRNA#1: guide RNA to PD-1; sense primer SEQ ID 33 CACCGCGGAGAGCTTCGTGCTAAAC”, “efficiency of Cas9/gRNA pair in creating double strand break (DSB), percent of gene modifications” value 10.83%. Against it:
- PD1 gRNA#4: guide RNA to PD-1; sense primer SEQ ID 39 CACCGAGGCGGCCAGCTTGTCCGTC — higher, 20.87%
- PD1 gRNA#5: guide RNA to PD-1; sense primer SEQ ID 41 CACCGCGTTGGGCAGTTGTGTGACA — higher, 30.60%
- PD1 gRNA#6: guide RNA to PD-1; sense primer SEQ ID 43 CACCGACGGAAGCGGCAGTCCTGGC — higher, 25.91%

“PD1 gRNA#2: guide RNA to PD-1; sense primer SEQ ID 35 CACCGCCTGCTCGTGGTGACCGAAG” was tested, and the “efficiency of Cas9/gRNA pair in creating double strand break (DSB), percent of gene modifications” value was >60%.

The substances below were run on AAVS1 in the same assay as above. Conditions: AAVS1 gene site, 3 days.
Assay type: cell-based, human
Method: as §1, §2

Point of comparison: “AAVS1 gRNA#5: guide RNA to AAVS1; sense primer SEQ ID 27 CACCGCCGGCCCTGGGAATATAAGG”, “efficiency of Cas9/gRNA pair in creating double strand break (DSB), percent of gene modifications” value 27.55%. Against it:
- AAVS1 gRNA#1: guide RNA to AAVS1; sense primer SEQ ID 19 CACCGTGGGGGTTAGACCCAATATC — higher, 32.99%
- AAVS1 gRNA#2: guide RNA to AAVS1; sense primer SEQ ID 21 CACCGACCCCACAGTGGGGCCACTA — lower, 27.10%
- AAVS1 gRNA#6: guide RNA to AAVS1; sense primer SEQ ID 29 CACCGCGGGCCCCTATGTCCACTTC — higher, 39.62%

What follows are substances tested on CCR5 in the same assay as above. Conditions: CCR5 gene site, 3 days.
Assay type: cell-based, human
Method: as §1
(§3) The efficiencies of Cas9 in creating double strand break (DSB) with the assistance of different gRNA sequences were listed in Table 7. The percentage numbers in Table 7 indicated the percent of gene modifications in the sample.

Point of comparison: “CCR5 gRNA#1: guide RNA to CCR5; sense primer SEQ ID 61 CACCGACAATGTGTCAACTCTTGAC”, “efficiency of Cas9/gRNA pair in creating double strand break (DSB), percent of gene modifications” value 21.47%. Against it:
- CCR5 gRNA#3: guide RNA to CCR5; sense primer SEQ ID 65 CACCGGTGACAAGTGTGATCACTT — higher, 55.98%
- CCR5 gRNA#4: guide RNA to CCR5; sense primer SEQ ID 67 CACCGACACAGCATGGACGACAGCC — higher, 45.99%
- CCR5 gRNA#5: guide RNA to CCR5; sense primer SEQ ID 69 CACCGATCTGGTAAAGATGATTCC — higher, 36.07%
- CCR5 gRNA#6: guide RNA to CCR5; sense primer SEQ ID 71 CACCGTTGTATTTCCAAAGTCCCAC — higher, 33.17%

“CCR5 gRNA#2: guide RNA to CCR5; sense primer SEQ ID 63 CACCGTCATCCTCCTGACAATCGAT” was tested, and the “efficiency of Cas9/gRNA pair in creating double strand break (DSB), percent of gene modifications” value was >60%.

These substances were tested on HPRT in the same assay as above. Conditions: HPRT gene site, 3 days.
Assay type: cell-based, human
Method: as §1, §3

Point of comparison: “HPRT gRNA#1: guide RNA to HPRT; sense primer SEQ ID 5 CACCGCACGTGTGAACCAACCCGCC”, “efficiency of Cas9/gRNA pair in creating double strand break (DSB), percent of gene modifications” value 27.85% ^. Against it:
- HPRT gRNA#2: guide RNA to HPRT; sense primer SEQ ID 7 CACCGAAACAACAGGCCGGGCGGGT — higher, 30.04% ^

“HPRT gRNA#3: guide RNA to HPRT; sense primer SEQ ID 9 CACCGACAAAAAAATTAGCCGGGTG” was tested, and the “efficiency of Cas9/gRNA pair in creating double strand break (DSB), percent of gene modifications” value was <1%.
For “HPRT gRNA#4: guide RNA to HPRT; sense primer SEQ ID 11 CACCGTAAATTTCTCTGATAGACTA”, the “efficiency of Cas9/gRNA pair in creating double strand break (DSB), percent of gene modifications” value was <5%.
“HPRT gRNA#5: guide RNA to HPRT; sense primer SEQ ID 13 CACCGTGTTTCAATGAGAGCATTAC” was tested, and the “efficiency of Cas9/gRNA pair in creating double strand break (DSB), percent of gene modifications” value was <1%.
For “HPRT gRNA#6: guide RNA to HPRT; sense primer SEQ ID 15 CACCGGTCTCGAACTCCTGAGCTC”, the “efficiency of Cas9/gRNA pair in creating double strand break (DSB), percent of gene modifications” value was <5%.

Each substance was assayed on CTLA4 in the same assay as above. Conditions: CTLA4 gene site, 3 days.
Assay type: cell-based, human
Method: as §1, §3

Point of comparison: “CTLA4 gRNA#1: guide RNA to CTLA4; sense primer SEQ ID 47 CACCGCCGGGTGACAGTGCTTCGGC”, “efficiency of Cas9/gRNA pair in creating double strand break (DSB), percent of gene modifications” value 40.96%. Against it:
- CTLA4 gRNA#2: guide RNA to CTLA4; sense primer SEQ ID 49 CACCGTGCGGCAACCTACATGATG — higher, 56.10%
- CTLA4 gRNA#3: guide RNA to CTLA4; sense primer SEQ ID 51 CACCGCTAGATGATTCCATCTGCAC — lower, 39.33%
- CTLA4 gRNA#4: guide RNA to CTLA4; sense primer SEQ ID 53 CACCGAGGTTCACTTGATTTCCAC — lower, 40.13%
- CTLA4 gRNA#5: guide RNA to CTLA4; sense primer SEQ ID 55 CACCGCCGCACAGACTTCAGTCACC — lower, 15.90%
- CTLA4 gRNA#6: guide RNA to CTLA4; sense primer SEQ ID 57 CACCGCTGGCGATGCCTCGGCTGC — lower, 36.93%
